Results reported in article PMC9141032 (International Journal of Molecular Sciences, 2022).
Converted amounts (≈) assume the structure as drawn. “And” between values parts separate entries of the source, which are not always exact repeats. Identical values can stand only once.

Experiments:
[1] = Metabolic stability in mouse liver microsomes; settings: for % compound remaining: MLM
Experimental: The final concentration assay was 1
NADPH in 100 mM potassium phosphate buffer.
Spectrometer, Metabolite Pilot V 1.5 Software.
Method: Ionization mode, electrospray positive; adquisition mode, TOF MS with IDA MS/MS; column, Atlantis T3 C18, 2.1 x 15 mm, 3 μm; mobile phase, wa te r: acetonitrile: 0.1%: formic acid; flow rate, 0.3 mL/min; source temperature, 550 °C; column temperature, 25 °C; injection volume, 5 […]
concentration 1 mg/mL, NADPH 1.3 mM.
Table S5. Summary of LC‐MS conditions […]

SH-SY5Y cells [2] = assay: Nitrite production (Griess) in 6-OHDA-treated SH-SY5Y cells; format: cell-based, human; settings: 1 μM, 6-OHDA 25 μM 16 h
Excerpt: Along with the neuronal loss, neuroinflammation is a process related to the onset of the disease, and it is an important contributor to the pathogenesis and progression of these disorders. […] .

[3] = In vivo pharmacokinetics in brain; settings: male, CD1, mouse, ip, mice, 10 mg/kg intraperitoneal
Experimental: After treatment, mice were euthanized, and the plasma and brain were collected.
Male CD1 mice were supplied by the Laboratory Animal Service of the University of Granada (Granada, Spain) and housed in the Animal Facilities of the Center of Biomedical Investigation of the University of Granada. […] Calculations were performed using noncompartmental analysis of plasma data after intraperitoneal injection by means of PK Solver 2.0.
Basic PK parameters were calculated.

mice = assay: Toxicity observation during the PK study; format: in vivo, mouse; settings: single dose 10 mg/kg intraperitoneally
Experimental: Thus, two-month-old mice were treated with a single dose of 10 mg/kg intraperitoneally in ten groups (n = 3), for consecutive times: 0, 5, 15, 30 min and 1, 2, 4, 6, 8, 24 h. After treatment, mice were euthanized, and the plasma and brain were collected.

culture cells = system: culture cells; design: method as in ref 32, 33 = [32]; 32. Escolano C. Pallás M. Griñán-Ferré C. Abás S. Callado L.-F. García-Sevilla J.A. Synthetic I 2 Imidazoline Receptor Ligands for Prevention or Treatment of Human Brain Disorders Patent WO 2019/12185 || [33]; PMID 32150414; doi:10.1021/acs.jmedchem.9b02080; 33. Abás S. Rodríguez-Arévalo S. Bagán A. Griñán-Ferré C. Vasilopoulou F. Brocos-Mosquera I. Muguruza C. Pérez B. Molins E. Luque F.J. Bicyclic α-Iminophosphonates as High Affinity Imidazoline I 2 Rec; settings: plethora of culture cells; cited from earlier work
[4] = design: method as in ref 33 = [33]; PMID 32150414; doi:10.1021/acs.jmedchem.9b02080; 33. Abás S. Rodríguez-Arévalo S. Bagán A. Griñán-Ferré C. Vasilopoulou F. Brocos-Mosquera I. Muguruza C. Pérez B. Molins E. Luque F.J. Bicyclic α-Iminophosphonates as High Affinity Imidazoline I 2 Rec; settings: 1% DMSO and 99% PBS buffer; cited from earlier work
[5] = design: method as in ref 33 = [33]; PMID 32150414; doi:10.1021/acs.jmedchem.9b02080; 33. Abás S. Rodríguez-Arévalo S. Bagán A. Griñán-Ferré C. Vasilopoulou F. Brocos-Mosquera I. Muguruza C. Pérez B. Molins E. Luque F.J. Bicyclic α-Iminophosphonates as High Affinity Imidazoline I 2 Rec; settings: previous studies, cited from earlier work
adult rats = system: adult rats; design: method as in ref 33 = [33]; PMID 32150414; doi:10.1021/acs.jmedchem.9b02080; 33. Abás S. Rodríguez-Arévalo S. Bagán A. Griñán-Ferré C. Vasilopoulou F. Brocos-Mosquera I. Muguruza C. Pérez B. Molins E. Luque F.J. Bicyclic α-Iminophosphonates as High Affinity Imidazoline I 2 Rec; settings: 20 and 35 mg/kg intraperitoneally, 1 and 2 h postinjection; cited from earlier work
5xFAD murine model = system: 5xFAD murine model; design: method as in ref 32, 33 = [32]; 32. Escolano C. Pallás M. Griñán-Ferré C. Abás S. Callado L.-F. García-Sevilla J.A. Synthetic I 2 Imidazoline Receptor Ligands for Prevention or Treatment of Human Brain Disorders Patent WO 2019/12185 || [33]; PMID 32150414; doi:10.1021/acs.jmedchem.9b02080; 33. Abás S. Rodríguez-Arévalo S. Bagán A. Griñán-Ferré C. Vasilopoulou F. Brocos-Mosquera I. Muguruza C. Pérez B. Molins E. Luque F.J. Bicyclic α-Iminophosphonates as High Affinity Imidazoline I 2 Rec; settings: 5 mg/kg in drinking water, 4 weeks; cited from earlier work
SH-SY5Y cells [6] = assay: Cytotoxicity in SH-SY5Y cells (MTT); settings: 24 h, 0.2 to 20 μM
[7] = Chemical stability in buffers at pH 2, 5 and 7.4
primary astrocytes = assay: Nitrite production (Griess) in LPS-treated primary astrocytes; settings: 1 μM 1 h, then LPS 10 μg/mL 24 h

## CCOP(=O)(OCC)[C@]1(c2ccccc2)N=C[C@H]2C(=O)N(c3ccc(F)c(Cl)c3)C(=O)[C@H]21 (racemic) [B06, diethyl (1RS,3aSR,6aSR)-5-(3-chloro-4-fluorophenyl)-4,6-dioxo-1-phenyl-1,3a,4,5,6,6a-hexahydropyrrolo[3,4-c]pyrrole-1-phosphonate]
[1]; minus NADPH, 0 min
  % compound remaining: 105.00 ± 23.97%
[1]; minus NADPH, 60 min
  % compound remaining: 83.20 ± 2.87%
[1]; plus NADPH, 0 min
  % compound remaining: 100.00 ± 25.58%
[1]; plus NADPH, 5 min
  % compound remaining: 135.00 ± 7.06%
[1]; plus NADPH, 15 min
  % compound remaining: 67.50 ± 4.15%
[1]; plus NADPH, 30 min
  % compound remaining: 30.30 ± 5.28%
[1]; plus NADPH, 45 min
  % compound remaining: 15.20 ± 1.98%
[1]; plus NADPH, 60 min
  % compound remaining: 6.08 ± 0.01%
[1]; mouse, microsomes
  half-life at 1 μM: 16.2 min
SH-SY5Y cells [2]
  effect on nitrite production: significantly reversed the increase in nitrite production
[3]; in vivo
  AUC(0-inf): 3310 ng·h/mL
  Cmax: 128 ± 66 ng/mL
  Tmax: 15 min
[3]; in vivo, read-out: AUC0–480 (converted)
  AUC(0-t): 2320 ng·h/mL
[3]
  half-life: 257 min
mice
  toxicity in organs or tissues, de visu observation after euthanasia: no toxicity in organs or tissues
mice; up to 24 h
  toxicity in the animals: not toxicity in any of the animals
Culture cells
  cytotoxicity: devoid of cytotoxicity
[4]
  solubility: 92 µM (≈ 44.1 µg/mL)
[5]; 60 min
  mice microsomal percentage remanent: 65.08%
[5]
  t ½ in mice microsomes: 91.72 min
Adult rats
  effect on body temperature: hypothermia
5xFAD murine model
  effect on cognition: improving cognition and ameliorating the neurodegenerative condition
SH-SY5Y cells [6]
  cytotoxic effect on cell cultures (MTT): None of the concentrations used were cytotoxic
[7]; pH 2, 37 °C, 0 min
  % B06 Remaining: 100 ± 8.84%
[7]; pH 2, 37 °C, 5 min
  % B06 Remaining: 104 ± 9.81%
[7]; pH 2, 37 °C, 15 min
  % B06 Remaining: 98 ± 11.30%
[7]; pH 2, 37 °C, 30 min
  % B06 Remaining: 106 ± 9.97%
[7]; pH 2, 37 °C, 60 min
  % B06 Remaining: 112 ± 11.2%
[7]; pH 2, 37 °C, 120 min
  % B06 Remaining: 96 ± 13.6%
[7]; pH 2, up to 120 min
  chemical stability: stable at pH 2
[7]; pH 5
  chemical stability: stable up to 1 h
[7]; pH 5, 37 °C, 0 min
  % B06 Remaining: 100 ± 3.3%
[7]; pH 5, 37 °C, 5 min
  % B06 Remaining: 97 ± 6.5%
[7]; pH 5, 37 °C, 15 min
  % B06 Remaining: 100 ± 3.9%
[7]; pH 5, 37 °C, 30 min
  % B06 Remaining: 87 ± 11.3%
[7]; pH 5, 37 °C, 60 min
  % B06 Remaining: 98 ± 10.1%
[7]; pH 5, 37 °C, 120 min
  % B06 Remaining: 75 ± 8.5%
[7]; pH 5, between 1 h and 2 h
  % of the compound that suffered structural changes: 25%
[7]; pH 7.4, 37 °C, 0 min
  % B06 Remaining: 100 ± 2.9%
[7]; pH 7.4, 37 °C, 15 min
  % B06 Remaining: 77 ± 3.8%
[7]; pH 7.4, 37 °C, 30 min
  % B06 Remaining: 75% and 75 ± 5.6%
[7]; pH 7.4, 37 °C, 60 min
  % B06 Remaining: 53 ± 6.4%
[7]; pH 7.4, 37 °C, 120 min
  % B06 Remaining: 19% and 19 ± 1.9%
[7]; pH 7.4, 15 min
  % of the compound transformed: 25%
Primary astrocytes
  effect on nitrite production: significant decrease in nitrite production
